Values joined by “and” are separate entries in the source; they are usually repeats but may differ in a detail not shown here. Equal entries are not always repeated.
Experiments:
zebra mussels = settings: in vivo; cited from earlier work
adult mussels = test system: adult mussels; set-up: species or system zebra mussels; settings: in vivo

SMILES	Mortality rate (zebra mussels) [%]	Day of treatment on which complete mortality was observed (adult mussels)
[K+].[O]=[Mn](=[O])(=[O])[O-] [KMnO]	≤ 10	
OCl [NaOCl, sodium hypochlorite]	≤ 10	18 days and 23 days

From patent publication US9420796B2 (priority 2013, dated 2016)
